Results as given in PMC11995724, “Antibiotic target discovery by integrated phenotypic and activity-based profiling of electrophilic fragments” (Cell chemical biology, 2025).
Where a name gives a salt, the structure may show the parent alone.

Test: in vitro
Details: human, hek293t cells

Row | SMILES | viability at 48 h, 25 µM
1 | C=CC(=O)NCc1nc2ccccc2s1 [1-I12, N-[(1,3-benzothiazol-2-yl)methyl]prop-2-enamide] | 35.8%
2 | Cc1cc(CN(Cc2cnn(C)c2)C(=O)CCl)ccc1Cl [5-G12, 2-chloro-N-[(4-chloro-3-methylphenyl)methyl]-N-[(1-methyl-1H-pyrazol-4-yl)methyl]acetamide] | -0.0746%
3 | C=CCNC(=O)C(C#N)=Cc1ccc(C(=O)O)cc1 [8-J04, 4-{2-cyano-2-[(prop-2-en-1-yl)carbamoyl]eth-1-en-1-yl}benzoic acid] | 87.1%
4 | Cc1ccccc1NC(=O)C(C#N)=Cc1c(Cl)nc2ccccn12 [9-I22, 3-{2-chloroimidazo[1,2-a]pyridin-3-yl}-2-cyano-N-(2-methylphenyl)prop-2-enamide] | 134%
5 | O=C(CCl)N(CCCO)C1CCCc2ccccc21 (stereo not shown) [7-J14, 2-chloro-N-(3-hydroxypropyl)-N-(1,2,3,4-tetrahydronaphthalen-1-yl)acetamide] | 0.693%
6 | Cc1cc(C(=O)CCl)c(C)n1-c1cccc(Cl)c1 [10-N18, 2-chloro-1-[1-(3-chlorophenyl)-2,5-dimethyl-1H-pyrrol-3-yl]ethan-1-one] | 0.68%
7 | C=CC(=O)NC1CCC(OCc2cc(C)no2)CC1 (stereo not shown) [1-M08, N-{4-[(3-methyl-1,2-oxazol-5-yl)methoxy]cyclohexyl}prop-2-enamide] | 86.5%
8 | COC1(OC)CCOCC1NC(=O)CCl (stereo not shown) [7-D10, 2-chloro-N-(4,4-dimethoxyoxan-3-yl)acetamide] | 19.1%
9 | Cc1ccc2nc(-c3ccc(F)cc3)c(CNC(=O)C(C)Cl)n2c1 (stereo not shown) [5-D21, 2-chloro-N-{[2-(4-fluorophenyl)-6-methylimidazo[1,2-a]pyridin-3-yl]methyl}propanamide] | 113%
10 | O=C(CCl)NC1CCC2(CCC1(F)F)OCCO2 (stereo not shown) [5-G09, 2-chloro-N-{9,9-difluoro-1,4-dioxaspiro[4.6]undecan-8-yl}acetamide] | 5.9%
11 | C=CC(=O)NCCC(=O)N1CCc2ncncc2C1 [2-C04, N-(3-oxo-3-{5H,6H,7H,8H-pyrido[4,3-d]pyrimidin-6-yl}propyl)prop-2-enamide] | 93.3%
12 | CCN(CC(=O)NC1CCS(=O)(=O)C1)C(=O)CCl (stereo not shown) [4-I19, 2-chloro-N-{[(1,1-dioxo-1lambda6-thiolan-3-yl)carbamoyl]methyl}-N-ethylacetamide] | 1.33%
13 | O=C(CCl)Nc1oncc1-c1ccccc1 [6-I20, 2-chloro-N-(4-phenyl-1,2-oxazol-5-yl)acetamide] | 1.45%
14 | C=CC(=O)NCC1CCCN1S(=O)(=O)CC (stereo not shown) [3-F19, N-{[1-(ethanesulfonyl)pyrrolidin-2-yl]methyl}prop-2-enamide] | 68.6%
15 | O=C(CCl)NC(Cn1cncn1)c1ccccc1 (stereo not shown) [7-N03, 2-chloro-N-[1-phenyl-2-(1H-1,2,4-triazol-1-yl)ethyl]acetamide] | 0.644%
16 | O=C(CCl)NCC(F)(F)c1cccnc1 [6-C21, 2-chloro-N-[2,2-difluoro-2-(pyridin-3-yl)ethyl]acetamide] | 104%
17 | C=CC(=O)NC(c1noc(O)n1)C(C)(C)C (stereo not shown) [2-C14, N-[1-(5-hydroxy-1,2,4-oxadiazol-3-yl)-2,2-dimethylpropyl]prop-2-enamide] | 96.4%
18 | CN(CC(=O)Nc1cccc(Cl)c1)C(=O)CCl [5-F18, 2-chloro-N-{[(3-chlorophenyl)carbamoyl]methyl}-N-methylacetamide] | 0.687%
19 | Cc1ccc(NC(=O)C(C#N)=Cc2ccc(C)s2)c(C)c1 [8-D09, 2-cyano-N-(2,4-dimethylphenyl)-3-(5-methylthiophen-2-yl)prop-2-enamide] | 99.2%
20 | C=CC(=O)NC[C@@H]1C[C@H](F)CN1Cc1csc(C)n1 [2-I09, N-{[(2S,4S)-4-fluoro-1-[(2-methyl-1,3-thiazol-4-yl)methyl]pyrrolidin-2-yl]methyl}prop-2-enamide] | 192%
21 | C=CC(=O)N1CCC(n2ccc(C)n2)CC1 [2-A21, 1-[4-(3-methyl-1H-pyrazol-1-yl)piperidin-1-yl]prop-2-en-1-one] | 139%
22 | CC(Cl)C(=O)N(C)Cc1ccnn1C (stereo not shown) [5-L17, 2-chloro-N-methyl-N-[(1-methyl-1H-pyrazol-5-yl)methyl]propanamide] | 134%
23 | CCN(CC)C(=O)/C(C#N)=C/c1cc(O)c(O)c([N+](=O)[O-])c1 [9-B04, (2E)-2-cyano-3-(3,4-dihydroxy-5-nitrophenyl)-N,N-diethylprop-2-enamide] | 105%
24 | Cc1cc(-n2c(C)cc(C=C(C#N)C(=O)NC3CCCC3)c2C)no1 [9-J15, 2-cyano-N-cyclopentyl-3-[2,5-dimethyl-1-(5-methyl-1,2-oxazol-3-yl)-1H-pyrrol-3-yl]prop-2-enamide] | 91.8%
25 | C=CC(=O)N1CCc2c(nnn2CCOC)C1 [1-N05, 1-[1-(2-methoxyethyl)-1H,4H,5H,6H,7H-[1,2,3]triazolo[4,5-c]pyridin-5-yl]prop-2-en-1-one] | 105%
26 | NC(=O)c1cc(-c2ccccc2)sc1NC(=O)CCl [6-M14, 2-(2-chloroacetamido)-5-phenylthiophene-3-carboxamide] | 0.446%

Row | SMILES | viability at 48 h, 25 µM
27 | O=C(CCl)Nc1c(Cl)cccc1C(F)(F)F [5-B04, 2-chloro-N-[2-chloro-6-(trifluoromethyl)phenyl]acetamide] | 1.62%
28 | Cc1nn(Cc2ccccc2)c(C)c1CNC(=O)CCl [4-O11, N-[(1-benzyl-3,5-dimethyl-1H-pyrazol-4-yl)methyl]-2-chloroacetamide] | 1.47%
29 | CCC(NC(=O)CCl)c1ccc(Cl)cc1 (stereo not shown) [6-O10, 2-chloro-N-[1-(4-chlorophenyl)propyl]acetamide] | 1.9%
30 | O=C(CCl)N1CCN(CCOc2ccccc2)CC1 [4-H14, 2-chloro-1-[4-(2-phenoxyethyl)piperazin-1-yl]ethan-1-one hydrochloride] | 1.67%
31 | O=C(CCl)c1ccc(NC(=O)c2ccccc2)cc1 [10-B06, N-[4-(2-chloroacetyl)phenyl]benzamide] | 1.37%
32 | C=CC(=O)N1CCC(C(=O)NCC(C)c2ncc(C)s2)CC1 (stereo not shown) [3-P10, N-[2-(5-methyl-1,3-thiazol-2-yl)propyl]-1-(prop-2-enoyl)piperidine-4-carboxamide] | 61.4%
33 | Cn1c(N)c(C(=O)CCl)c(=O)[nH]c1=O [10-I16, 6-amino-5-(2-chloroacetyl)-1-methyl-1,2,3,4-tetrahydropyrimidine-2,4-dione] | 104%
34 | C=CC(=O)N1CCOCC2(COCCN2C)C1 (stereo not shown) [3-J14, 1-{1-methyl-4,8-dioxa-1,11-diazaspiro[5.6]dodecan-11-yl}prop-2-en-1-one] | 96%
35 | Cc1cccc(C)c1NC(=O)C(C#N)=Cc1ccsc1 [8-I07, 2-cyano-N-(2,6-dimethylphenyl)-3-(thiophen-3-yl)prop-2-enamide] | 85.3%
36 | C=CC(=O)N1CCC(O)(C(F)(F)C(N)=O)C1 (stereo not shown) [2-C16, 2,2-difluoro-2-[3-hydroxy-1-(prop-2-enoyl)pyrrolidin-3-yl]acetamide] | 98.2%
37 | CC(Cl)C(=O)NC(C)c1nc(Cc2ccccc2)no1 (stereo not shown) [7-B19, N-[1-(3-benzyl-1,2,4-oxadiazol-5-yl)ethyl]-2-chloropropanamide] | 79.9%
38 | COC(=O)c1sccc1N1C(=O)C=CC1=O [10-A07, methyl 3-(2,5-dioxo-2,5-dihydro-1H-pyrrol-1-yl)thiophene-2-carboxylate] | 16.6%
39 | C=CC(=O)NCc1nnc2ccccn12 [1-H19, N-({[1,2,4]triazolo[4,3-a]pyridin-3-yl}methyl)prop-2-enamide] | 182%
40 | C=CC(=O)N1CCCCC1c1noc(C2CC2)n1 (stereo not shown) [3-K12, 1-[2-(5-cyclopropyl-1,2,4-oxadiazol-3-yl)piperidin-1-yl]prop-2-en-1-one] | 105%
41 | CC(Cl)C(=O)NC1CCN(Cc2cscn2)CC1 (stereo not shown) [7-D07, 2-chloro-N-{1-[(1,3-thiazol-4-yl)methyl]piperidin-4-yl}propanamide] | 111%
42 | C=CC(=O)Nc1ccc(C(=O)N2CCC[C@@H]2C(=O)OC)cc1 [2-E21, methyl (2R)-1-[4-(prop-2-enamido)benzoyl]pyrrolidine-2-carboxylate] | 104%
43 | C=CC(=O)Nc1c(C)ccc(Cl)c1CO [1-O03, N-[3-chloro-2-(hydroxymethyl)-6-methylphenyl]prop-2-enamide] | 67.5%
44 | O=C(CCl)N(Cc1ccccc1)Cc1ccco1 [5-F22, N-benzyl-2-chloro-N-[(furan-2-yl)methyl]acetamide] | 0.693%
45 | CC(Cl)C(=O)N(CCC#N)c1ccccc1 (stereo not shown) [6-M18, 2-chloro-N-(2-cyanoethyl)-N-phenylpropanamide] | 105%
46 | O=C(CCl)Cc1ccc(Cl)c(Cl)c1 [10-E15, 1-chloro-3-(3,4-dichlorophenyl)propan-2-one] | 1.56%
47 | COc1ccc(NC(=O)CCl)cc1S(=O)(=O)N(C)C [4-E15, 2-chloro-N-[3-(dimethylsulfamoyl)-4-methoxyphenyl]acetamide] | 0.774%
48 | O=C(CCl)N1N=C(c2ccccc2)CC1c1ccc2nccnc2c1 (stereo not shown) [4-A22, 2-chloro-1-[3-phenyl-5-(quinoxalin-6-yl)-4,5-dihydro-1H-pyrazol-1-yl]ethan-1-one] | 0.127%
49 | CC(Cl)C(=O)N(C)C1CS(=O)(=O)c2ccc(Cl)cc21 (stereo not shown) [7-M14, 2-chloro-N-(5-chloro-1,1-dioxo-2,3-dihydro-1lambda6-benzothiophen-3-yl)-N-methylpropanamide] | 73%
50 | O=C(CCl)N1CC(Cc2ccc(F)cc2F)C1 [5-G20, 2-chloro-1-{3-[(2,4-difluorophenyl)methyl]azetidin-1-yl}ethan-1-one] | 0.867%
51 | CC(=O)NCCc1cc(C(=O)CCl)ccc1F [10-O05, N-{2-[5-(2-chloroacetyl)-2-fluorophenyl]ethyl}acetamide] | 37.8%
52 | C=CC(=O)NC1CCc2ccccc21 (stereo not shown) [1-A14, N-(2,3-dihydro-1H-inden-1-yl)prop-2-enamide] | 107%
